System: not given
Assay: not given
Conditions: reported in the literature; cited from earlier work

Row | Molecule | adverse side effects
1 | CCCCCCCCCCC[C@@H](C[C@@H]1OC(=O)[C@H]1CCCCCC)OC(=O)[C@H](CC(C)C)NC=O [Xenical] | fatty stools, increased stool frequency, loose stools, diarrhea and abdominal pain
2 | OC1(c2ccc(Cl)cc2)c2ccccc2C2=NCCN21 (stereo not drawn) [Mazindol] | dry mouth, constipation, stomach discomfort and nausea/vomiting

Target: T1, porcine pancreatic lipase (Sus scrofa, UniProt P00591)
T1 construct: purchased Sigma
T1 sequence (P00591 1-450): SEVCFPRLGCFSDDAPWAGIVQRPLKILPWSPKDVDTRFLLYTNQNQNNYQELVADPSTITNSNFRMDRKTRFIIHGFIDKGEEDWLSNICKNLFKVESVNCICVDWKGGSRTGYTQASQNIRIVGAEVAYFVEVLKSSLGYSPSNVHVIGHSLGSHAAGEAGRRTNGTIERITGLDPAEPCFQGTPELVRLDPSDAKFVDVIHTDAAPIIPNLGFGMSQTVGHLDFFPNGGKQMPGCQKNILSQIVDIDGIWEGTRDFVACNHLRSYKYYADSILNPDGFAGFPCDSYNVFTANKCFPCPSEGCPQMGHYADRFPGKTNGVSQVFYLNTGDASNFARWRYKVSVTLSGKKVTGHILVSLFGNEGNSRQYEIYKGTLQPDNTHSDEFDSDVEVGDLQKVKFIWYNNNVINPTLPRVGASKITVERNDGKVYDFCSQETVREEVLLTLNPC
Assay: Lipase inhibitory activity assay (4-MUO fluorescent substrate)
Type: biochemical
Conditions: method of Example 1
Procedure: A lipase activity assay was performed by using the oleate ester of fluorescent 4-methylumbelliferone (4-MUO) as a substrate to measure the fluorescence of 4-methylumbelliferone produced by reaction.
The buffer used for the assay was 13 mM Tris-HCl (pH 8.0) containing 150 mM NaCl, 1.36 mM CaCl2. The enzyme assay was performed using a 0.1 M solution of the substrate 4-MUO (Sigma) in DMSO diluted 1:1000 in said buffer and a solution of porcine pancreatic lipase (Sigma) prepared at 400 U/ml also in said buffer.
An enzymatic reaction was started by adding 25 μl of the lipase/buffer solution after 50 μl of the 4-MUO/buffer solution and 25 μl of distilled water (or an aqueous solution of each sample) were added and mixed in a 96-well microplate at 25° C. After the reaction was performed for 30 minutes, the reaction was stopped by adding 100 μl of a 0.1 M citrate buffer (pH 4.2) and the fluorescence of 4-methylumbelliferone produced by the reaction (excitation 355 nm, emission 460 nm) was measured using a fluorescence plate reader (Fluoroskan Asent CF from Labsystems).
The inhibitory activity of each test sample was determined as IC50(μM), i.e. the amount of the sample giving 50% inhibition of the activity of the control (distilled water).

Row | Molecule | lipase inhibitory activity (in words)
3 | (−)-epigallocatechin 3-O-gallate [(−)-epigallocatechin 3-O-gallate (4)] | strongest activity among the major catechins

Same assay, conditions: porcine pancreatic lipase, 4-MUO substrate, 25° C., 30 minutes, pH 8.0

Row | Molecule | IC50 [nM]
4 | O=c1c(O)cc([C@H]2Oc3cc(O)cc(O)c3C[C@H]2O)cc2c([C@H]3Oc4cc(O)cc(O)c4C[C@H]3O)cc(O)c(O)c12 [theaflavin (15), theaflavin] | 106
5 | O=C(O[C@@H]1Cc2c(O)cc(O)cc2O[C@@H]1c1cc(O)c(O)c(O)c1-c1c([C@H]2Oc3cc(O)cc(O)c3C[C@H]2O)cc(O)c(O)c1O)c1cc(O)c(O)c(O)c1 [theasinensin B (12), theasinensin B] | 276
6 | Oc1cc(O)c2c(c1)OC(c1ccc(O)c(O)c1)C(O)C2 (single isomer, unassigned; (+)) [(+)-catechin (5), (+)-catechin] | > 690000
7 | O=C(O[C@@H]1Cc2c(O)cc(O)cc2O[C@@H]1c1cc(O)c(O)c(O)c1-c1c([C@H]2Oc3cc(O)cc(O)c3C[C@H]2OC(=O)c2cc(O)c(O)c(O)c2)cc(O)c(O)c1O)c1cc(O)c(O)c(O)c1 [theasinensin D (13), theasinensin D] | 98
8 | O=C(O[C@@H]1Cc2c(O)cc(O)cc2O[C@@H]1c1cc(O)c(O)c2c(=O)c(O)cc([C@H]3Oc4cc(O)cc(O)c4C[C@H]3O)cc12)c1cc(O)c(O)c(O)c1 [theaflavin 3′-O-gallate (16), theaflavin 3′-O-gallate] | 112
9 | O=C(O[C@@H]1Cc2c(O)cc(O)cc2O[C@H]1c1cc(O)c(O)c(O)c1)c1cc(O)c(O)c(O)c1 [(−)-gallocatechin 3-O-gallate (8), (−)-gallocatechin 3-O-gallate] | 349
10 | O=C(OC1Cc2c(O)cc(O)c(C(c3cc(O)c(O)c(O)c3)C(Cc3c(O)cc(O)cc3O)OC(=O)c3cc(O)c(O)c(O)c3)c2OC1c1cc(O)c(O)c(O)c1)c1cc(O)c(O)c(O)c1 (stereo not drawn) [assamicain B (10), assamicain B] | 186
11 | Oc1cc(O)c2c(c1)O[C@H](c1ccc(O)c(O)c1)[C@H](O)C2 [(−)-epicatechin (1), (−)-epicatechin] | > 21600
12 | O=C(OC1Cc2c(O)cc(O)c(C(c3cc(O)c(O)c(O)c3)C(Cc3c(O)cc(O)cc3O)OC(=O)c3cc(O)c(O)c(O)c3)c2OC1c1cc(O)c(O)c(O)c1)c1cc(O)c(O)c(O)c1 (stereo not drawn) [assamicain A (9), assamicain A] | 120
13 | Oc1cc(O)c2c(c1)O[C@H](c1cc(O)c(O)c(O)c1)[C@@H](O)C2 [(+)-gallocatechin (7), (+)-gallocatechin] | > 163000
14 | O=C(O[C@@H]1Cc2c(O)cc(O)cc2O[C@@H]1c1ccc(O)c(O)c1)c1cc(O)c(O)c(O)c1 [(−)-epicatechin 3-O-gallate (2), (−)-epicatechin 3-O-gallate] | 271
15 | (−)-epigallocatechin 3-O-gallate [(−)-epigallocatechin 3-O-gallate (4)] | 284
16 | O=C(O[C@@H]1Cc2c(O)cc(O)cc2O[C@@H]1c1cc(O)c(O)c(O)c1-c1c([C@H]2Oc3cc(O)cc(O)c3C[C@H]2OC(=O)c2cc(O)c(O)c(O)c2)cc(O)c(O)c1O)c1cc(O)c(O)c(O)c1 [theasinensin A (11), theasinensin A] | 142
17 | O=C1C=C2c3c(cc(O)c4c3O[C@H](c3ccc(O)c(O)c3)[C@@H](O)C4)OC23C[C@]1(O)O[C@H]1Cc2c(O)cc(O)cc2O[C@@H]13 [dehydro-dicatechin A (14), dehydro-dicatechin A] | 3090
18 | Oc1cc(O)c2c(c1)O[C@H](c1cc(O)c(O)c(O)c1)[C@H](O)C2 [(−)-epigallocatechin (3), (−)-epigallocatechin] | > 20400
